Earlier results, collected in patent publication US8246984B2, “Formulation of insoluble small molecule therapeutics in lipid-based carriers” (Rigel Pharmaceuticals, Inc., priority 2005, dated 2012).

Conditions: transition temperature, gel to liquid crystalline phase

Tm [°C]	Structure (SMILES)
23	CCCCCCCCCCCCCC(=O)OC[C@H](COP(=O)([O-])OCC[N+](C)(C)C)OC(=O)CCCCCCCCCCCCC [Dimyristoylphosphatidylcholine]
−22	CCCCCCCC/C=C\CCCCCCCC(=O)OC[C@H](COP(=O)([O-])OCC[N+](C)(C)C)OC(=O)CCCCCCC/C=C\CCCCCCCC [Dioleoylphosphatidylcholine, 1,2-dioleoyl-sn-glycero-3-phosphocholine]
41	CCCCCCCCCCCCCCCC(=O)OC[C@H](COP(=O)([O-])OCC[N+](C)(C)C)OC(=O)CCCCCCCCCCCCCCC [Dipalmitoylphosphatidylcholine]
55	CCCCCCCCCCCCCCCCCC(=O)OC[C@H](COP(=O)([O-])OCC[N+](C)(C)C)OC(=O)CCCCCCCCCCCCCCCCC [Distearoylphosphatidylcholine]
